Reference: PubChem BioAssay (NCI)
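Tested at 5 concentrations; 48 h exposure; 96-well plates; endpoints linearly interpolated, else capped at highest concentration. GI50 = concentration required for 50% inhibition of growth. TGI: concentration producing complete growth inhibition.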

These compounds were tested on MDA-MB-468 breast (assay: DTP human tumour cell line panel, 48 h).

First: Cc1ccc(S(=O)(=O)c2nc(-c3ccccc3)oc2S(C)=O)cc1 (stereo unspecified)
Second: Cc1nn2c(/C=C3/C(=O)Nc4cc(Cl)ccc43)c(-c3ccccc3)nc2s1
The GI50 of the first is 53-fold lower: 520 nM for the first, 27700 nM for the second.

Compared with `Cc1nc2c(n1C)C(=O)c1ccccc1C2=O`, `O=C1CCC(N2C(=O)c3ccccc3C2=O)C(=O)N1` (stereo unspecified) is higher in GI50: 25100 nM for the first, greater than 100000 nM for the second.

First: c1ccc(-c2nc(N3CCOCC3)c3c4c(sc3n2)CCCCCC4)nc1
Second: O=C(NCCc1ccccn1)OCc1nc2nc(Cl)nc(N3CCOCC3)c2[nH]1
The GI50 of the first is 3.1-fold higher: 4120 nM for the first, 1350 nM for the second.

First: C=CC(=O)Nc1cc(N2CCN(CC)CC2)ccc1Nc1cc(N(C)C(=O)Nc2c(Cl)c(OC)cc(OC)c2Cl)ncn1
Second: COc1cc2c(cc1OC)C(=O)/C(=C/c1cc(-c3ccc4c(c3)OCO4)n[nH]1)C2
The GI50 of the first is 1.6-fold higher: 1680 nM for the first, 1070 nM for the second.

First: COc1ccc(C(O)c2cc3c(N)c(C(=O)Nc4cccc(Cl)c4)sc3nc2C)cc1 (stereo unspecified)
Second: Cc1nc(Nc2cccnc2)sc1C(=O)/C=C/c1ccc(Cl)cc1
The GI50 of the first is 10-fold lower: 286 nM for the first, 2890 nM for the second.

Compared with `Cn1cc(-c2ccc3nnc(Sc4ccc5ncccc5c4)n3n2)cn1`, `COc1ccc(-c2nc(-c3nc4ccc(F)cc4[nH]3)c3ccccn23)cc1` is 4-fold lower in GI50: 16400 nM for the first, 4120 nM for the second.

First: Cc1cc(O)c(C2=NN(c3ccc(S(N)(=O)=O)cc3)C(c3ccc(Cl)cc3)C2)c(C)c1Cl (stereo unspecified)
Second: CS(=O)(=O)Nc1cc(-c2ccc3ncc(C#N)c(NCc4ccccc4O)c3c2)cnc1Cl
The GI50 of the first is 62-fold higher: 10700 nM for the first, 173 nM for the second.

First: Cc1c2cc(Cl)c3ccccc3c2c[n+]2ccccc12
Second: C1=C2CCCC3=Cc4ccccc4OC23Oc2ccccc21
The GI50 of the first is 33-fold lower: 165 nM for the first, 5420 nM for the second.

First: O=C([O][Sn]([O]C(=O)c1ccccn1)([c]1ccccc1)[c]1ccccc1)c1ccccn1
Second: O=C(Oc1ccc(CO[N+](=O)[O-])cc1)c1ccccc1
The GI50 of the first is 9.9-fold higher: 1450 nM for the first, 146 nM for the second.

Compared with `O=P1(S)OC[C@H]2O[C@@H]3[C@H](F)[C@@H]2OP(O)(=S)OC[C@H]2O[C@H]([C@H](F)[C@@H]2O1)n1cnc2c(ncnc21)NC/C=C/CNc1ncnc2c1ncn23` (stereo partly specified), `O=c1[nH]c2nc(NC3CCOCC3)ncc2cc1Oc1ccc(F)cc1F` is higher in GI50: 11500 nM for the first, greater than 25000 nM for the second.

Going from `C=C1CCC2(C#N)[C@H]3[C@H](CC[C@@H]2C)[C@@H](C)C[C@@H](CC(C)(C)NC(=O)CN2CCC2=O)[C@H]13` (stereo partly specified) to `CCN(c1cc(-c2ccc(CN3CCOCC3)cc2)cc(C(=O)NCc2c(C)cc(C)[nH]c2=O)c1C)C1CCOCC1`, the GI50 rises from 3220 nM to 13400 nM (4.2-fold).

`O=C(Nc1ccc(-c2nc(-c3cccc(OCCN4CCOCC4)c3)c(-c3ccnc(Br)c3)[nH]2)cc1)c1ccccc1` and `COc1ccc(C(=O)NNc2nc(Cl)nc(N3CCN(C(c4ccccc4)c4ccccc4)CC3)n2)cc1` are within 1.5-fold of each other in GI50: 1770 nM for the first, 2500 nM for the second.

`C#Cc1nc2ccccc2c(=O)[nH]1` and `c1ccc2c(-c3nc(-c4c[nH]c5ccncc45)cs3)c[nH]c2c1` are within 1.5-fold of each other in GI50: 199 nM for the first, 226 nM for the second.

Going from `NCCOCCOCCNc1nc(-c2ccc(Cl)cc2)nc(N2CCN(c3ccccn3)CC2)n1` to `Cc1nc(Nc2ccccn2)sc1C(=O)/C=C/c1ccc(Cl)cc1`, the GI50 falls from 1950 nM to 395 nM (4.9-fold).

First: CCN=C1C=CC(=C(c2ccc(N(CC)CC)cc2)c2ccc(N(CC)CC)cc2)c2ccccc21
Second: COc1ccc2[nH]c(O)c(/C=c3/cc4c(c(-c5ccc(F)c(OC)c5)n3)=Nc3ccccc3-4)c2c1
The GI50 of the first is 47-fold lower: 30.2 nM for the first, 1430 nM for the second.

Compared with `COc1cc(NC(=O)CCSc2nc3ccc(C)cc3c(=O)n2Cc2ccccc2)cc(OC)c1OC`, `COc1cc(C)c(C2NC(=O)c3ccccc3N2)cc1C` (stereo unspecified) is 7.1-fold lower in GI50: 5390 nM for the first, 754 nM for the second.

Going from `O=c1cc(N/N=C/c2ccc(F)cc2)c2cc(Cl)ccc2[nH]1` to `Cn1cc(C2=C(c3cn(C)c4ccc(Cl)cc34)C(=O)NC2=O)c2ccccc21`, the GI50 falls from 13300 nM to 2860 nM (4.7-fold).

Going from `OCc1ccc(-c2cscc2-c2ccc(CO)o2)o1` to `Cc1nc2ccc(NC(=O)CCNC(=O)CCCc3ccc(CC(C(=O)O)C(=O)O)cc3)cc2s1`, the GI50 rises from 74 nM to greater than 100000 nM.

First: CSCCCNC(=O)c1ccc2c(c1)/C(=C/c1[nH]c(C)cc1C)C(=O)N2
Second: COc1cnc2c(c1)C(=O)c1c-2n(CCCNCCO)c(=O)c2ccncc12
The GI50 of the first is 1.7-fold higher: 481 nM for the first, 283 nM for the second.

Compared with `Cc1ccc(S(=O)(=O)c2nc(-c3ccccc3)oc2S(C)=O)cc1` (stereo unspecified), `Cc1nn2c(/C=C3/C(=O)Nc4cc(Cl)ccc43)c(-c3ccccc3)nc2s1` is higher in TGI: 2150 nM for the first, greater than 100000 nM for the second.

`Cc1nc2c(n1C)C(=O)c1ccccc1C2=O` and `O=C1CCC(N2C(=O)c3ccccc3C2=O)C(=O)N1` (stereo unspecified) cannot be ordered by TGI: greater than 100000 nM for the first, greater than 100000 nM for the second.

First: c1ccc(-c2nc(N3CCOCC3)c3c4c(sc3n2)CCCCCC4)nc1
Second: O=C(NCCc1ccccn1)OCc1nc2nc(Cl)nc(N3CCOCC3)c2[nH]1
The TGI of the first is 6.6-fold higher: 19000 nM for the first, 2880 nM for the second.

Compared with `C=CC(=O)Nc1cc(N2CCN(CC)CC2)ccc1Nc1cc(N(C)C(=O)Nc2c(Cl)c(OC)cc(OC)c2Cl)ncn1`, `COc1cc2c(cc1OC)C(=O)/C(=C/c1cc(-c3ccc4c(c3)OCO4)n[nH]1)C2` is 1.7-fold lower in TGI: 4160 nM for the first, 2410 nM for the second.

First: COc1ccc(C(O)c2cc3c(N)c(C(=O)Nc4cccc(Cl)c4)sc3nc2C)cc1 (stereo unspecified)
Second: Cc1nc(Nc2cccnc2)sc1C(=O)/C=C/c1ccc(Cl)cc1
The TGI of the first is 3.3-fold higher: 28400 nM for the first, 8480 nM for the second.

Compared with `Cn1cc(-c2ccc3nnc(Sc4ccc5ncccc5c4)n3n2)cn1`, `COc1ccc(-c2nc(-c3nc4ccc(F)cc4[nH]3)c3ccccn23)cc1` is lower in TGI: greater than 91400 nM for the first, 57100 nM for the second.

Going from `Cc1cc(O)c(C2=NN(c3ccc(S(N)(=O)=O)cc3)C(c3ccc(Cl)cc3)C2)c(C)c1Cl` (stereo unspecified) to `CS(=O)(=O)Nc1cc(-c2ccc3ncc(C#N)c(NCc4ccccc4O)c3c2)cnc1Cl`, the TGI falls from 24600 nM to 1680 nM (15-fold).

First: Cc1c2cc(Cl)c3ccccc3c2c[n+]2ccccc12
Second: C1=C2CCCC3=Cc4ccccc4OC23Oc2ccccc21
The TGI of the first is 120-fold lower: 570 nM for the first, 69100 nM for the second.

Going from `O=C([O][Sn]([O]C(=O)c1ccccn1)([c]1ccccc1)[c]1ccccc1)c1ccccn1` to `O=C(Oc1ccc(CO[N+](=O)[O-])cc1)c1ccccc1`, the TGI falls from 2760 nM to 332 nM (8.3-fold).

`O=P1(S)OC[C@H]2O[C@@H]3[C@H](F)[C@@H]2OP(O)(=S)OC[C@H]2O[C@H]([C@H](F)[C@@H]2O1)n1cnc2c(ncnc21)NC/C=C/CNc1ncnc2c1ncn23` (stereo partly specified) and `O=c1[nH]c2nc(NC3CCOCC3)ncc2cc1Oc1ccc(F)cc1F` cannot be ordered by TGI: greater than 100000 nM for the first, greater than 25000 nM for the second.

`C=C1CCC2(C#N)[C@H]3[C@H](CC[C@@H]2C)[C@@H](C)C[C@@H](CC(C)(C)NC(=O)CN2CCC2=O)[C@H]13` (stereo partly specified) and `CCN(c1cc(-c2ccc(CN3CCOCC3)cc2)cc(C(=O)NCc2c(C)cc(C)[nH]c2=O)c1C)C1CCOCC1` are within 1.5-fold of each other in TGI: 22900 nM for the first, 30400 nM for the second.

Compared with `O=C(Nc1ccc(-c2nc(-c3cccc(OCCN4CCOCC4)c3)c(-c3ccnc(Br)c3)[nH]2)cc1)c1ccccc1`, `COc1ccc(C(=O)NNc2nc(Cl)nc(N3CCN(C(c4ccccc4)c4ccccc4)CC3)n2)cc1` is 8.3-fold higher in TGI: 5700 nM for the first, 47500 nM for the second.

Going from `C#Cc1nc2ccccc2c(=O)[nH]1` to `c1ccc2c(-c3nc(-c4c[nH]c5ccncc45)cs3)c[nH]c2c1`, the TGI rises from 486 nM to 1510 nM (3.1-fold).

`NCCOCCOCCNc1nc(-c2ccc(Cl)cc2)nc(N2CCN(c3ccccn3)CC2)n1` and `Cc1nc(Nc2ccccn2)sc1C(=O)/C=C/c1ccc(Cl)cc1` are within 1.5-fold of each other in TGI: 3990 nM for the first, 5700 nM for the second.

Going from `CCN=C1C=CC(=C(c2ccc(N(CC)CC)cc2)c2ccc(N(CC)CC)cc2)c2ccccc21` to `COc1ccc2[nH]c(O)c(/C=c3/cc4c(c(-c5ccc(F)c(OC)c5)n3)=Nc3ccccc3-4)c2c1`, the TGI rises from 228 nM to 2940 nM (13-fold).

`COc1cc(NC(=O)CCSc2nc3ccc(C)cc3c(=O)n2Cc2ccccc2)cc(OC)c1OC` and `COc1cc(C)c(C2NC(=O)c3ccccc3N2)cc1C` (stereo unspecified) cannot be ordered by TGI: greater than 100000 nM for the first, greater than 100000 nM for the second.

First: O=c1cc(N/N=C/c2ccc(F)cc2)c2cc(Cl)ccc2[nH]1
Second: Cn1cc(C2=C(c3cn(C)c4ccc(Cl)cc34)C(=O)NC2=O)c2ccccc21
The TGI of the first is 2.2-fold higher: 49100 nM for the first, 22000 nM for the second.

Compared with `OCc1ccc(-c2cscc2-c2ccc(CO)o2)o1`, `Cc1nc2ccc(NC(=O)CCNC(=O)CCCc3ccc(CC(C(=O)O)C(=O)O)cc3)cc2s1` is higher in TGI: 281 nM for the first, greater than 100000 nM for the second.

Compared with `CSCCCNC(=O)c1ccc2c(c1)/C(=C/c1[nH]c(C)cc1C)C(=O)N2`, `COc1cnc2c(c1)C(=O)c1c-2n(CCCNCCO)c(=O)c2ccncc12` is lower in TGI: greater than 100000 nM for the first, 1650 nM for the second.
